Results published in patent US8691986B2, “Azetidine and piperidine compounds useful as PDE10 inhibitors” (Amgen Inc., priority 2012, dated 2014).

Columns and labels:
human PDE2A1 = human PDE2A1 (Homo sapiens (Human), UniProt O00408); experiment: PDE2A inhibition, PDE IMAP TR-FRET assay; assay type: biochemical; settings: FAM-cAMP substrate
Procedure: Purified human PDE2A1 and PDE10A2 enzymes were obtained from BPS Bioscience (San Diego, Calif.). IMAP™ TR-FRET progressive binding system, FAM-cAMP substrate were from Molecular Devices (Sunnyvale, Calif.).
The PDE IMAP assay was conducted in a 384-well black Greiner polypropylene plate (Sigma, St. Louis, Mo.). PDE inhibitors were serial diluted in 100% DMSO and dispensed into assay plate at […] per well using Echo® Liquid Handling System from LABCYTE. Ten μL of PDE enzyme in IMAP reaction buffer (10 mM Tris-HCl, pH 7.2, 10 mM MgCl2, 0.05% NaN3, and 0.01% Tween-20) was added into the assay wells. The PDE enzyme concentration used was based on each lot of enzyme activity, to ensure enzyme reaction falls in a linear range under assay condition. 1.4 nM of PDE2 or […] PDE10 were used in the assay system. Enzyme was pre-incubated with inhibitors for 60 minutes at room temperature before addition of 10 uL of substrate addition, which results in 100 nM of FAM-cAMP in the reaction. Enzyme reaction was allowed to proceed at room temperature for 90 min, and the reaction is stopped by 55 μl addition of binding reagent according to manufacturer's recommendation. The mixture is further incubated at room temperature for additional 4 hours, and signal was read on an Envision multimode reader (PerkinElmer). Fluorescence signals were measured at 520 nm and 485 nm. The signal ratio at 520/485 nm corresponded to the generation of reaction product of AMP, and it was used in all data analysis. Values from DMSO-treated wells were normalized to POC=100, and no-enzyme wells were normalized to POC=0. IC50 values were determined by using the Genedata Screener V9.0.1. The curve fitting algorithm used for dose response data analysis in Genedata Screener is a custom implementation of a robust curve-fitting algorithm called ROUT (Robust regression with outlier detection) and uses a four-parameter logistical (4 PL) Hill model.

PDE10 = PDE10 (Rattus norvegicus (Rat), UniProt Q9QYJ6); experiment: PDE10 ex vivo receptor occupancy (RO) screening in rat striatum; settings: oral, 10 mpk, 1 h (footnote A)
Chain of PDE10 (Q9QYJ6 whole entry): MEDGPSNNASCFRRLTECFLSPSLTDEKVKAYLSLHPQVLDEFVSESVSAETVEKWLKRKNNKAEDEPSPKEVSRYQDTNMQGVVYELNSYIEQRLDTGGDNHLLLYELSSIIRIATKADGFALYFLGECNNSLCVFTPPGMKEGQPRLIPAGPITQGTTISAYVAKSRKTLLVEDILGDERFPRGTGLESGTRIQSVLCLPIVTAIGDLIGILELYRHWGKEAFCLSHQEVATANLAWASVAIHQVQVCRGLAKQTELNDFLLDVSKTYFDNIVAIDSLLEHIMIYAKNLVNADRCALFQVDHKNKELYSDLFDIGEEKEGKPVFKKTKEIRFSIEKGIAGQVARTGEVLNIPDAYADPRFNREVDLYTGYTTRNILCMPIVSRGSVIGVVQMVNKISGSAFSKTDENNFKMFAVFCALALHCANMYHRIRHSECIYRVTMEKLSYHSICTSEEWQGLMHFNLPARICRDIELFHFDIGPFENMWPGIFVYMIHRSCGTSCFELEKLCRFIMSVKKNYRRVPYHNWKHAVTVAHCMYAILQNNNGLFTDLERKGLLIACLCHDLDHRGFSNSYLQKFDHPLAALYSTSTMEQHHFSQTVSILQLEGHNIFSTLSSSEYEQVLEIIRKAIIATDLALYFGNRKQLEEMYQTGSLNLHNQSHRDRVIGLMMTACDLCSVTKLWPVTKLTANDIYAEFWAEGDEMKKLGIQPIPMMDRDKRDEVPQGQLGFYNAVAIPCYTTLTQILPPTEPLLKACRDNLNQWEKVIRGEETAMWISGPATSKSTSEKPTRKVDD
Procedure: The ex vivo screening protocol was approved by Amgen's Institutional Animal Care and Use Committee (IACUC) and in accordance with the National Institutes of Health Guide for Care and Use of Laboratory Animals in facilities accredited by the Association for the Assessment and Accreditation of Laboratory Animal Care (AALAC).
PDE10 inhibitors were dissolved in 2% Hydroxypropylmethylcellulose (HPMC), 1% Tween-80, pH 2.2 with methanesulfonic acid. Male Sprague Dawley® rats weighing 180-225 g (4 per group) were dosed orally with either vehicle or PDE10 inhibitors (3 mg/kg or 10 mg/kg) and then returned to their home cage to allow for absorption of the compounds. After one hour (with 10 mg/kg PDE10 inhibitor) or four hours (with 3 mg/kg or 10 mg/kg PDE10 inhibitor) rats were sacrificed by CO2 inhalation. Blood was obtained by heart puncture and plasma was frozen and stored at −80° C. for exposure analysis. Brains were removed and immediately frozen in chilled methylbutane, and stored at −80° C. until cutting. Three coronal brain slices per brain containing the striatum were cut at […] using a cryostat and placed onto microscope slides, air-dried and stored at −20° C. For radioligand binding experiments, slides were thawed at room temperature and then incubated with 1 nM a tritium labeled tracer compound (insert citation) in binding buffer (150 mM Phosphate-buffered saline containing 2 mM MgCl2 and 100 mM DTT, pH 7.4) for 1 minute at 4° C. To assess non-specific binding, slides containing adjacent brain sections were incubated in the same solution with addition of […] of an unlabelled, structurally unrelated PDE10 antagonist. Afterwards slides were washed 3 times in ice-cold binding buffer, dipped into distilled water to remove buffer salts, and dried under a stream of cold air. Emission of beta particles from the sections was counted for 8 hours in a Beta Imager 2000 (Biospace, Paris, France) and digitized and analyzed using M3 Vision software (Biospace, Paris, France). Total binding radioactivity in the striatum was measured as cpm/mm^2 in hand-drawn regions of interest and averaged across the three sections per brain. Non-specific binding was subtracted to obtain specific binding values and percent occupancy was calculated by setting vehicle specific binding as 0% occupancy.

Chain of human PDE2A1 (O00408 other isoform, or with tags, fused parts or gaps): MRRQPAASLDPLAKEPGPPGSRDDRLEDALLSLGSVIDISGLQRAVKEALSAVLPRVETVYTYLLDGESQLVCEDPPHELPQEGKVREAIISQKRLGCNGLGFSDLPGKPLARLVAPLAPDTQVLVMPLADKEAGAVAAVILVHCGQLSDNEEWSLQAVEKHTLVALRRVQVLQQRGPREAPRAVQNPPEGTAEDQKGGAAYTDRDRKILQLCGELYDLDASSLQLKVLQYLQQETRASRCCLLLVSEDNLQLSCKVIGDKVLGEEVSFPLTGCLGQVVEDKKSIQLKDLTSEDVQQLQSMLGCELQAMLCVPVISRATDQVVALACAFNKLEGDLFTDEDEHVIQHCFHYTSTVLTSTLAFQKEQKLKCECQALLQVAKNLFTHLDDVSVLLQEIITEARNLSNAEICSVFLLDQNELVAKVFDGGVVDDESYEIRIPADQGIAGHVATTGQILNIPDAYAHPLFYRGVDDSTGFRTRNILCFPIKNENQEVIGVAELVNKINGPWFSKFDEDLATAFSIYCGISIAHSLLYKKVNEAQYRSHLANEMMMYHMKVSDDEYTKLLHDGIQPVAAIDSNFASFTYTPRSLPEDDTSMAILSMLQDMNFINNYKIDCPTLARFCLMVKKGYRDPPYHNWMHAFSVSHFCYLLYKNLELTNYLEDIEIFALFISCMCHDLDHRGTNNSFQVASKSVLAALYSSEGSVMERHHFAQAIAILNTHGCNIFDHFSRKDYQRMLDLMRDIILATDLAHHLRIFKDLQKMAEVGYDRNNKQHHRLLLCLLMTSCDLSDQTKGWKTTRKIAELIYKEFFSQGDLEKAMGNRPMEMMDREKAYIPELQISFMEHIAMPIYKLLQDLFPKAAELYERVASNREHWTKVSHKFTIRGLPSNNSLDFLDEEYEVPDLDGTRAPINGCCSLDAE

SMILES	IC50 (human PDE2A1)	receptor occupancy at 10 mg/kg (PDE10)
NC(=O)c1ccc(-c2nccnc2C2CN(c3ccc4ccccc4n3)C2)cc1 [Compound 15, 4-(3-(1-(2-quinolinyl)-3-azetidinyl)-2-pyrazinyl)benzamide, reference compound]	10 µM	47.7%
NC(=O)c1ccc(-c2nccnc2C2CN(c3ccc4ccccc4n3)C2)cc1F [Compound 16, 2-fluoro-4-(3-(1-(quinolin-2-yl)azetidin-3-yl)pyrazin-2-yl)benzamide, reference compound]	3.3 µM	52.3%
CNC(=O)c1cccc(-c2nccnc2C2CN(c3ccc4ccccc4n3)C2)c1 [Compound 17, N-methyl-3-(3-(1-(quinolin-2-yl)azetidin-3-yl)pyrazin-2-yl)benzamide, reference compound]	2.16 µM	72%
